We go through 17 molecules from ChEMBL document CHEMBL1131057, “Peptidomimetic growth hormone secretagogues. Design considerations and therapeutic potential” (J Med Chem, 1998).

Each structure is given as a SMILES string. Where a SMILES comes first, the peptide text is derived from it. [ ]: non-standard residue; d: D form. dTrp(2-Me) = Cc1[nH]c2ccccc2c1C[C@@H](N)C(=O)O; d2Nal = N[C@H](Cc1ccc2ccccc2c1)C(=O)O; GABA = NCCCC(=O)O Where only a bound is given, the exact number is not on record here.

Data set [1] is filed under the species Rattus norvegicus. Description: compound was evaluated for GH release in rat. The format is functional, organism-based.
The species named for data set [2] is Rattus norvegicus. Description: compound was evaluated for GH release in the rat pituitary cell culture assay. The format is functional. The conditions noted are these: Pituitary gland cell.
The species entered for data set [3] is Homo sapiens. Description: compound was evaluated for GH release. The class given is functional, organism-based.
Data set [4] relates to Rattus norvegicus. Description: Compound was evaluated for GH releasing properties after iv administration to infant rats. The format is functional, organism-based.
The test system of data set [5] is Rattus norvegicus. Description: Potency measured in an anesthetized rat model. The class given is functional, organism-based.
The species entered for data set [6] is Rattus norvegicus. Description: (§1) In Vitro evaluation for growth hormone release from the pituitary incubates. The class given is functional.
Data set [7] is filed under the species Canis familiaris. Description: Compound is evaluated for elevated GH in beagles with peroral dose. The class given is functional. The conditions noted are these: Canis lupus familiaris, po.
For data set [8], the species on record is Rattus norvegicus. Description: Compound was evaluated for binding affinity, which binds with high affinity to membranes isolated from rat hypothalamus. The class given is functional.
The species named for data set [9] is Sus scrofa. Description: Limited capacity to porcine pituitary membranes was evaluated. The format is functional.
Data set [10] is filed under the species Rattus norvegicus. Description: The concentration of binding sites was evaluated. The class given is functional.
The species entered for data set [11] is Rattus norvegicus. Described as §1. The format is functional. The source holds these as a separate data set.
A short description of data set [12]: Oral bioavailability measured in dogs. The note with it: dog, in vivo. The class given is ADME, organism-based, Canis lupus familiaris.
A short description of data set [13]: Half-life period measured in dogs. The format is ADME, organism-based, Canis lupus familiaris. The note with it: dog, in vivo.
Data set [14] deals with Canis familiaris. Description: Compound is evaluated for elevated GH in beagles with intravenous dose. The class given is functional. The conditions noted are these: Canis lupus familiaris.
Data set [15] has as its target Growth hormone secretagogue receptor type 1 (Homo sapiens, UniProt Q92847). Description: Compound was evaluated for GH release for effect on human GH secretagogue receptor. The class given is functional.
The target of data set [16] is T1, Oxytocin receptor (Homo sapiens, UniProt P30559).
T1 sequence (P30559 whole entry): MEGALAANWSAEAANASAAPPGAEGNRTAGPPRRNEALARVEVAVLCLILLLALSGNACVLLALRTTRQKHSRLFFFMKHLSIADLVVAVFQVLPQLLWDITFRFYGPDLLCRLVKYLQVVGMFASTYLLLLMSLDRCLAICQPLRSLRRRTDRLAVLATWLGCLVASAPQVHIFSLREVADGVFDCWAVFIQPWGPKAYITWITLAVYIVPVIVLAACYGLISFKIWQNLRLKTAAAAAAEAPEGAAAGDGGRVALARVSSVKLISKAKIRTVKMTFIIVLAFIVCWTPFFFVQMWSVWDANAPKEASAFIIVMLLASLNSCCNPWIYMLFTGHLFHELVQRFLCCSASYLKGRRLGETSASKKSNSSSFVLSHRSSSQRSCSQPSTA
Description: Antagonistic activity against Oxytocin receptor. The class given is functional.

The species entered for data set [17] is Rattus norvegicus. Description: In vitro efficacy was evaluated for growth hormone release.
The nature of data set [18]: Compound was evaluated for half-life in humans. The conditions noted are these: human, in vivo. The class given is ADME, organism-based.
Data set [19] can be described thus: Compound was evaluated for oral bioavailability in human. The class given is ADME, organism-based. The note with it: in vivo.
The nature of data set [20]: Clearance rate is evaluated rats. The class given is ADME, organism-based. The note with it: rat, in vivo; read-out: Clearance rate.
The nature of data set [21]: Half-life was evaluated in rats. The format is ADME, organism-based. The note with it: rat, in vivo.
Data set [22] concerns Canis familiaris. Description: Compound was tested for minimum effective dose in dogs through iv dose. The conditions noted are these: Canis lupus familiaris. The format is functional.
Data set [23] in a line: In vitro efficacy was evaluated for growth hormone release.
A short description of data set [24]: Compound was evaluated percentage of Oral bioavailability in dogs. The format is ADME, organism-based, Canis lupus familiaris. The note with it: dog, in vivo.
For data set [25], the species on record is Rattus norvegicus. Description: Compound was tested for GH releasing from cultured rat pituitary cells (maximal increase in 15 min). The format is functional, Pituitary gland cell.
Data set [26] is described as follows: Clearance rate was evaluated in rats. The class given is ADME, organism-based. The note with it: rat, in vivo; read-out: Clearance rate.
The subject of data set [27] is Rattus norvegicus. Description: Compound was measured as maximal GH release which showed iv potency and efficacy. The format is functional, organism-based.
Data set [28] is described as follows: Compound was evaluated for percentage of Oral bioavailability in rats. The format is ADME, organism-based. The note with it: rat, in vivo, read-out: Bioavailabiility.
For data set [29], the species on record is Rattus norvegicus. Description: compound was evaluated for GH release in the rat pituitary cell. The class given is functional. The conditions noted are these: Pituitary gland cell.

For orientation: EC50 means the concentration giving half of the maximal effect. The low end stands for a more potent agent, the high end for a less potent agent. Usually Kd stands for the free concentration of one partner at which half of the binding sites on the other are occupied at equilibrium, for simple one-to-one binding. Low readings indicate a tighter complex, high ones a looser complex. Broadly, the half-life is the time in which the quantity being followed falls by half. Usually IC50 stands for the point on the concentration scale where inhibition reaches its midpoint. Lower therefore signals greater potency. By clearance is commonly meant the rate of elimination divided by the concentration.

Sequence of Growth hormone secretagogue receptor type 1 (Q92847 whole entry): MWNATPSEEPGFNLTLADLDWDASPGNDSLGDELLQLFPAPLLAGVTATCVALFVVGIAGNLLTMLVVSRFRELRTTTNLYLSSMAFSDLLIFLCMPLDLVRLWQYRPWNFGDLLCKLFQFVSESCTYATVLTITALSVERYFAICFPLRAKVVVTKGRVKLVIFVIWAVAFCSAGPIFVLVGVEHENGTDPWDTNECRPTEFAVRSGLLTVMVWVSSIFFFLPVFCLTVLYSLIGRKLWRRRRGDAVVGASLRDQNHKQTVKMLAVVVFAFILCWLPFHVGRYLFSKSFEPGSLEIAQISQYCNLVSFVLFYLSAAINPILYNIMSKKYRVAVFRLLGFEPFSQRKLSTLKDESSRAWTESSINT

On to `C[C@H](N)C(=O)N[C@@H](Cc1c[nH]cn1)C(=O)N[C@H](Cc1ccc2ccccc2c1)C(=O)N[C@@H](C)C(=O)N[C@@H](Cc1c[nH]c2ccccc12)C(=O)N[C@H](Cc1ccccc1)C(=O)N[C@@H](CCCCN)C(N)=O` (H-AH[d2Nal]AW[dF]K-NH2), for which, in data set [1], the EC50 came out at 6 nM.

For the molecule `CCOC(=O)[C@]1(Cc2ccccc2)CCCN(C(=O)[C@@H](Cc2c[nH]c3ccccc23)NC(=O)C(C)(C)N)C1`, it took 1.6 nM to reach a half-maximal effect in data set [2] (EC50).

In data set [3], `C[C@@H]1NC(=O)[C@H](Cc2ccc3ccccc3c2)NC(=O)[C@@H](N)CCCCNC(=O)CC[C@H](C(=O)N[C@@H](CCCCN)C(N)=O)NC(=O)[C@@H](Cc2ccccc2)NC(=O)[C@@H](Cc2c[nH]c3ccccc23)NC1=O` displayed an EC50 of 0.43 nM. In other words, the sub-nanomolar range.

Consider `Cc1[nH]c2ccccc2c1C[C@@H](NC(=O)CCCN)C(=O)N[C@H](Cc1ccc2ccccc2c1)C(=O)N[C@@H](Cc1ccccc1)C(=O)N[C@@H](CCCCN)C(N)=O` (H-[GABA][dTrp(2-Me)][d2Nal]FK-NH2), for which, in data set [4], the Concentration came out at 198 ng/mL.

In the case of `C[C@H](NC(=O)[C@@H](Cc1c[nH]c2ccccc12)NC(=O)[C@@H](N)Cc1c[nH]cn1)C(=O)N[C@@H](Cc1c[nH]c2ccccc12)C(=O)N[C@@H](CN[C@H](CO)CCCCN)Cc1ccccc1`, in data set [5], the EC50 was 0.5 nM.

On to `CSCC[C@@H](NC(=O)[C@H](Cc1ccccc1)NC(=O)CNC(=O)[C@H](Cc1ccccc1)NC(=O)[C@@H](N)Cc1ccc(O)cc1)C(N)=O`, for which, in data set [6], the Concentration was 10 µg/mL.

As for `CC(C)(N)C(=O)N[C@H](COCc1ccccc1)C(=O)N1CCC2(CC1)CN(S(C)(=O)=O)c1ccccc12` [IBUTAMOREN], the MED is 0.125 mg/kg in [7] and 0.025 mg/kg in [14]. Further, binding in [8] was put at a Kd of 0.17 nM. Also, the Bmax (fM (mg of protein)-1) in [9] worked out at 8. This molecule also returned a Bmax in data set [10] of 8 fmol/mg. The same molecule came in with an EC50 in data set [11] of 1.3 nM. Besides, in data set [12], the bioavailability was greater than 60%. Further, the half-life in data set [13] was 282 min.

`CC(C)(N)C(=O)N[C@H](Cc1c[nH]c2ccccc12)C(=O)N1CCC[C@]2(CC(=O)c3ccccc3O2)C1` yielded an EC50 in [2] of 1.8 nM.

Turning to `NC(=O)CN(CCc1ccccc1)C(=O)[C@@H](Cc1ccc2ccccc2c1)NC(=O)[C@@H](Cc1ccc2ccccc2c1)NC(=O)C1CCNCC1`, in data set [15], the EC50 amounted to 0.34 nM.

The molecule `C[C@@H](O)CN1CCC[C@@H](C(=O)NC2CC3CCC2(CS(=O)(=O)N2CCC4(CCc5ccccc54)CC2)C3(C)C)C1` (some centres undefined) registered an IC50 in data set [16] of 130 nM. In data set [17], this molecule yielded an EC50 of 90 nM.

For `C[C@H](NC(=O)[C@@H](Cc1c[nH]c2ccccc12)NC(=O)[C@@H](N)Cc1c[nH]cn1)C(=O)N[C@@H](Cc1c[nH]c2ccccc12)C(=O)N[C@H](Cc1ccccc1)C(=O)N[C@@H](CCCCN)C(N)=O` (H-H[dW]AW[dF]K-NH2), the values for the half-life in data set [18] and in data set [21] were 20 min and 22 min, respectively. The molecule also yielded a bioavailability in [19] of 0.3%. Besides, the clearance in data set [20] is 25 mL/min/kg. In data set [22], this molecule gave an MED of 0.01 mg/kg.

The molecule `CC(C)(N)CC(=O)N[C@@H]1CCc2ccccc2N(Cc2ccc(-c3ccccc3-c3nn[nH]n3)cc2)C1=O` displayed a concentration giving a half-maximal response (EC50) in data set [23] of 60 nM. For the same molecule, in data set [24], the bioavailability is less than 5%. The molecule also displayed a Max in [25] of 300%.

Turning to `CNC(=O)Nc1ccccc1-c1ccc2c(c1)CCN(C(=O)[C@@H](Cc1c[nH]c3ccccc13)NC(=O)C(C)(C)N)C2`, the EC50 in data set [2] was 100 nM.

`C[C@H](NC(=O)[C@@H](Cc1c[nH]c2ccccc12)NC(=O)CCc1c[nH]cn1)C(=O)N[C@@H](Cc1c[nH]c2ccccc12)C(=O)N[C@H](Cc1ccccc1)C(=O)N[C@H](CO)CCCCN`: the clearance in data set [26] came to 39 mL/min/kg. The molecule further showed a half-life in [21] of 11 min. Besides, a half-maximal effect in data set [27] (EC50) was put at 5 nM.

As to `CC(C)(N)CC(=O)N[C@@H]1CCc2c(ccc3ccccc23)N(Cc2ccc(-c3ccccc3-c3nn[nH]n3)cc2)C1=O`, the bioavailability in data set [28] was less than 5%. Besides, it took 4 nM to reach a half-maximal effect in [17] (EC50).

Molecule `C[C@@H]1CNC(C)(C)CC(=O)N[C@@H]2CCc3ccccc3N(Cc3ccc(cc3)-c3ccccc3C(=O)NCCCC(=O)O1)C2=O` showed an EC50 in data set [2] of 21 nM.

In turn, `CSCC[C@@H](NC(=O)[C@H](Cc1ccccc1)NC(=O)CNC(=O)[C@H](Cc1c[nH]c2ccccc12)NC(=O)[C@@H](N)Cc1ccc(O)cc1)C(N)=O` had a Concentration in data set [29] of 10 µg/mL.
